Experimental data: patent US10294202B2, “Pyrrolidinones as herbicides” (FMC Corporation, priority 2013, dated 2019)

Assays:
pigweed, palmer = assay: Test E preemergence herbicide test; assay type: in vivo, Amaranthus palmeri; design: key: 0 = no effect, 100 = complete control
Excerpt: (§1) Seeds of plant species selected from corn (Zea mays), soybean (Glycine max), velvetleaf (Abutilon theophrasti), lambsquarters (Chenopodium album), wild poinsettia (Euphorbia heterophylla), pigweed, palmer (palmer pigweed, Amaranthus palmeri), waterhemp (common waterhemp, Amaranthus rudis), surinam grass (Brachiaria decumbens), crabgrass, large (large crabgrass, Digitaria sanguinalis), crabgrass, Brazil (Brazilian crabgrass, Digitaria horizontalis), panicum, fall (fall panicum, Panicum dichotomiflorum), foxtail, giant (giant foxtail, Setaria faberii), foxtail, green (green foxtail, Setaria viridis), goosegrass (Eleusine indica), johnsongrass (Sorghum halepense), ragweed (common ragweed, Ambrosia elatior), barnyardgrass (Echinochloa crus-galli), sandbur (southern sandbur, Cenchrus echinatus), arrowleaf […] rhombifolia), ryegrass, Italian (Italian ryegrass, Lolium multiflorum), dayflower, VA (Virginia dayflower, Commelina virginica), field bindweed (Convolvulus arvensis), morningglory (Ipomoea coccinea), nightshade (eastern black nightshade, Solanum ptycanthum), kochia (Kochia scoparia), nutsedge, yellow (yellow nutsedge, Cyperus esculentus), cocklebur (common cocklebur, Xanthium strumarium), smartweed (ladysthumb smartweed, Polygonum Persicaria) and beggarticks (hairy beggarticks, Bidens pilosa), were planted into a silt loam soil and treated preemergence with test chemicals formulated in a non-phytotoxic solvent mixture which included a surfactant. Treated plants and controls were maintained in a greenhouse for 21 days, after which time all species were compared to controls and visually evaluated. Plant response ratings, summarized in Table E, are based on a scale of 0 to 100 where 0 is no effect and 100 is complete control. A dash (-) response means no test result.

waterhemp = assay: Test E preemergence herbicide test; assay type: in vivo, Amaranthus rudis; design: key: 0 = no effect, 100 = complete control
Excerpt: as §1

crabgrass, large = assay: Test E preemergence herbicide test; assay type: in vivo, Digitaria sanguinalis; design: key: 0 = no effect, 100 = complete control
Excerpt: as §1

foxtail, green = assay: Test E preemergence herbicide test; assay type: in vivo, Setaria viridis; design: key: 0 = no effect, 100 = complete control
Excerpt: as §1

bluegrass = assay: Test D pre-/postemergence herbicide test; assay type: in vivo, Poa annua; settings: for Plant response rating: Bluegrass, scale 0 to 100; for Plant response rating, Bluegrass: scale 0 to 100 (0 no effect, 100 complete control)
Excerpt: (§2) Seeds of plant species selected from bluegrass (annual bluegrass, Poa annua), blackgrass (Alopecurus myosuroides), canarygrass (littleseed canarygrass, Phalaris minor), chickweed (common chickweed, Stellaria media), galium (catchweed bedstraw, Galium aparine), bromegrass, downy (downy bromegrass, Bromus tectorum), field poppy (Papaver rhoeas), field violet (Viola arvensis), foxtail, green (green foxtail, Setaria viridis), deadnettle (henbit deadnettle, Lamium amplexicaule), ryegrass, Italian (Italian ryegrass, Lolium multiflorum), kochia (Kochia scoparia), lambsquarters (Chenopodium album), oilseed rape (Brassica napus), pigweed (Amaranthus retroflexus), chamomile (scentless chamomile, Matricaria inodora), Russian thistle (Salsola kali), speedwell (bird's-eye speedwell, Veronica persica), barley, spring (spring barley, Hordeum vulgare), wheat, spring (spring wheat, Triticum aestivum), buckwheat, wild (wild buckwheat, Polygonum convolvulus), mustard, wild (wild mustard, Sinapis arvensis), oat, wild (wild oat, Avena fatua), radish, wild (wild radish, Raphanus raphanistrum), […]), barley, winter (winter barley, Hordeum vulgare), and wheat, winter (winter wheat, Triticum aestivum) were planted into a silt loam soil and treated preemergence with test chemicals formulated in a non-phytotoxic solvent mixture which included a surfactant. At the same time, these species were planted in pots containing Redi-Earth® planting medium (Scotts Company, 14111 Scottslawn Road, Marysville, Ohio 43041) comprising spaghnum peat moss, vermiculite, wetting agent and starter nutrients and treated with postemergence applications of the test chemicals formulated in the same manner. Plants ranged in height from 2 to 18 cm (1- to 4-leaf stage). Treated plants and controls were maintained in a controlled growth environment for 7 to 21 days after which time all species were compared to controls and visually evaluated. Plant response ratings, summarized in Table D, are based on a scale of 0 to 100 where 0 is no effect and 100 is complete control. A dash (-) response means no test result.

blackgrass = assay: Test D pre-/postemergence herbicide test; assay type: in vivo, Alopecurus myosuroides; settings: for Plant response rating: Blackgrass, scale 0 to 100; for Plant response rating, Blackgrass: scale 0 to 100 (0 no effect, 100 complete control)
Excerpt: as §2

bromegrass, downy = assay: Test D pre-/postemergence herbicide test; assay type: in vivo, Bromus tectorum; settings: for Plant response rating: Bromegrass, Downy, scale 0 to 100; for Plant response rating, Bromegrass, Downy: scale 0 to 100 (0 no effect, 100 complete control)
Method in brief: (§3)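 Plants were sown in silt loam for preemergence spraying or in a peat moss/vermiculite mix for postemergence spraying at 2 to 18 cm height. Formulations used a non-phytotoxic solvent mixture with a surfactant. After 7 to 21 days, responses were scored visually from 0 (no effect) to 100 (complete control).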

lambsquarters = assay: Test D pre-/postemergence herbicide test; assay type: in vivo, Chenopodium album; settings: for Plant response rating: Lambsquarters, scale 0 to 100; for Plant response rating, Lambsquarters: scale 0 to 100 (0 no effect, 100 complete control)
Excerpt: as §2

speedwell = assay: Test D pre-/postemergence herbicide test; assay type: in vivo, Veronica persica; settings: for Plant response rating: Postemergence, Speedwell, scale 0 to 100; for Plant response rating, Speedwell: Preemergence, scale 0 to 100 (0 no effect, 100 complete control)
Method in brief: as §3

O=C1NCC(c2ccc(Cl)c(Cl)c2)C1C(=O)Nc1ccccc1F (racemic) [Compound 14]
90: Plant response rating, Crabgrass, Large (crabgrass, large; 125 g ai/ha) | Plant response rating, Crabgrass, Large (crabgrass, large; 250 g ai/ha)
0: Plant response rating, Pigweed, Palmer (pigweed, palmer; 16 g ai/ha) | Plant response rating, Pigweed, Palmer (pigweed, palmer; 31 g ai/ha) | Plant response rating, Pigweed, Palmer (pigweed, palmer; 62 g ai/ha) | Plant response rating, Pigweed, Palmer (pigweed, palmer; 125 g ai/ha) | Plant response rating, Pigweed, Palmer (pigweed, palmer; 250 g ai/ha) | Plant response rating, Waterhemp (waterhemp; 16 g ai/ha) | Plant response rating, Waterhemp (waterhemp; 31 g ai/ha) | Plant response rating, Waterhemp (waterhemp; 62 g ai/ha) | Plant response rating, Waterhemp (waterhemp; 125 g ai/ha) | Plant response rating, Waterhemp (waterhemp; 250 g ai/ha) | Plant response rating, Crabgrass, Large (crabgrass, large; 16 g ai/ha) | Plant response rating, Foxtail, Green (foxtail, green; 16 g ai/ha) | Plant response rating, Foxtail, Green (foxtail, green; 31 g ai/ha) | Plant response rating, Foxtail, Green (foxtail, green; 62 g ai/ha)
10: Plant response rating, Foxtail, Green (foxtail, green; 125 g ai/ha)
70: Plant response rating, Foxtail, Green (foxtail, green; 250 g ai/ha)
25: Plant response rating, Crabgrass, Large (crabgrass, large; 62 g ai/ha)

O=C1NCC(c2ccc(C(F)(F)F)cc2)C1C(=O)Nc1cccc(F)c1F (racemic) [Compound 202]
5: Plant response rating (blackgrass; Postemergence, 62 g ai/ha) | Plant response rating (bromegrass, downy; Postemergence, 125 g ai/ha)
98: Plant response rating, Crabgrass, Large (crabgrass, large; 31 g ai/ha) | Plant response rating, Crabgrass, Large (crabgrass, large; 62 g ai/ha) | Plant response rating, Crabgrass, Large (crabgrass, large; 125 g ai/ha) | Plant response rating, Crabgrass, Large (crabgrass, large; 250 g ai/ha) | Plant response rating, Foxtail, Green (foxtail, green; 125 g ai/ha) | Plant response rating, Foxtail, Green (foxtail, green; 250 g ai/ha)
65: Plant response rating (bluegrass; Preemergence, 125 g ai/ha) | Plant response rating (blackgrass; Preemergence, 125 g ai/ha) | Plant response rating (lambsquarters; Postemergence, 31 g ai/ha)
15: Plant response rating (bluegrass; Postemergence, 250 g ai/ha) | Plant response rating (bromegrass, downy; Postemergence, 250 g ai/ha)
20: Plant response rating (bromegrass, downy; Preemergence, 250 g ai/ha)
85: Plant response rating, Lambsquarters (lambsquarters; Preemergence, 62 g ai/ha) | Plant response rating (lambsquarters; Preemergence, 125 g ai/ha) | Plant response rating (lambsquarters; Preemergence, 250 g ai/ha) | Plant response rating (speedwell; 125 g ai/ha) | Plant response rating, Pigweed, Palmer (pigweed, palmer; 125 g ai/ha)
10: Plant response rating (bluegrass; Postemergence, 62 g ai/ha) | Plant response rating (bluegrass; Postemergence, 125 g ai/ha) | Plant response rating, Bluegrass (bluegrass; Preemergence, 31 g ai/ha) | Plant response rating (blackgrass; Postemergence, 125 g ai/ha) | Plant response rating, Foxtail, Green (foxtail, green; 31 g ai/ha)
30: Plant response rating, Blackgrass (blackgrass; Preemergence, 31 g ai/ha)
95: Plant response rating, Waterhemp (waterhemp; 125 g ai/ha) | Plant response rating, Waterhemp (waterhemp; 250 g ai/ha)
90: Plant response rating (speedwell; 250 g ai/ha) | Plant response rating, Speedwell (speedwell; 62 g ai/ha) | Plant response rating, Speedwell (speedwell; 125 g ai/ha) | Plant response rating, Speedwell (speedwell; 31 g ai/ha)
80: Plant response rating, Lambsquarters (lambsquarters; Preemergence, 31 g ai/ha) | Plant response rating, Pigweed, Palmer (pigweed, palmer; 250 g ai/ha)
75: Plant response rating (blackgrass; Preemergence, 250 g ai/ha) | Plant response rating (lambsquarters; Postemergence, 250 g ai/ha) | Plant response rating (speedwell; 62 g ai/ha) | Plant response rating, Foxtail, Green (foxtail, green; 62 g ai/ha)
100: Plant response rating, Speedwell (speedwell; 250 g ai/ha)
35: Plant response rating, Blackgrass (blackgrass; Preemergence, 62 g ai/ha)
0: Plant response rating (bluegrass; Postemergence, 31 g ai/ha) | Plant response rating (blackgrass; Postemergence, 31 g ai/ha) | Plant response rating (bromegrass, downy; Postemergence, 31 g ai/ha) | Plant response rating (bromegrass, downy; Postemergence, 62 g ai/ha) | Plant response rating, Bromegrass, Downy (bromegrass, downy; Preemergence, 62 g ai/ha) | Plant response rating, Bromegrass, Downy (bromegrass, downy; Preemergence, 31 g ai/ha) | Plant response rating (bromegrass, downy; Preemergence, 125 g ai/ha) | Plant response rating, Pigweed, Palmer (pigweed, palmer; 31 g ai/ha)
25: Plant response rating, Bluegrass (bluegrass; Preemergence, 62 g ai/ha)
50: Plant response rating, Waterhemp (waterhemp; 31 g ai/ha)
40: Plant response rating (blackgrass; Postemergence, 250 g ai/ha)
70: Plant response rating (bluegrass; Preemergence, 250 g ai/ha) | Plant response rating (lambsquarters; Postemergence, 125 g ai/ha) | Plant response rating, Pigweed, Palmer (pigweed, palmer; 62 g ai/ha)
60: Plant response rating (lambsquarters; Postemergence, 62 g ai/ha) | Plant response rating (speedwell; 31 g ai/ha) | Plant response rating, Waterhemp (waterhemp; 62 g ai/ha)
